Measured values taken from US20230115675A1, “METHODS OF TREATING CANCER” (The Broad Institute, Inc., priority 2020, published 2023).
Where two headings read alike, the source gives them in different places.

Key:
[1] = test system: Biomarker-positive cells; test: Cell culture washout (short exposure mimicking PK); format: cell-based; conditions: for sensitivity of biomarker-positive cells: high FDX1 expression vs biomarker negative
Experimental: […] Panels D and Panel E show the relative changes in metabolites as measured in ABC1(D) and A549 (E) 24 hours after a 2 hour pulse treatment with 100 nM elesclomol.
Biomarker-positive cells are sensitive to elesclomol-Cu(II) treatment corresponding to measured concentrations and kinetics measured in mice pharmokinetic (PK) studies.
Study simulates short exposure time that mimics the pharmokinetic (PK) properties of elesclomol-Cu(II).
Data supports Cmax driven activity profile. Cells will be used to establish a SubQ xenograft model where different copper ionophores could be analyzed for their efficacy.

[2] = test system: OVISE cells; test: Viability after LIAS or FDX1 gene deletion; format: cell-based
[3] = molecular target: T1, FDX1 (Homo sapiens, UniProt P10109); conditions: cited from earlier work; for binding to FDX1: previously shown
T1 sequence (P10109 61-184): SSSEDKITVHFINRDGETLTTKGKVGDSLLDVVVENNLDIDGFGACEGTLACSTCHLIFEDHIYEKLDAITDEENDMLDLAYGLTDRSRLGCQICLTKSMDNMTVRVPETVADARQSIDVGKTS

[4] = test system: A549 cells; test: Viability after FDX1 or LIAS gene deletion; format: cell-based
From the text: It has been previously shown that ferredoxin 1 (FDX1) is an important mediator of elesclomol-induced toxicity. […] To better understand the potential downstream mediators of cuproptosis, a CRISPR/Cas9 deletion strategy was used. […] In all conditions, FDX1 gene was the highest scoring hit, emphasizing the importance of this gene in elesclomol mediated toxicity (FIG. 33). […] The lipoic acid pathway mediates the lysine lipoylation of specific enzymes (DLAT, DLST, DBT, GCSH) that is crucial for their function (FIG. 34). […] This hypothesis was particularly appealing as lipoylation is required for mitochondrial respiration and lipoic acid has shown to have a high affinity binding to copper.

[5] = cited from earlier work
[6] = test system: NCHIH2030 cells; test: Viability in media containing glucose or galactose; format: cell-based; conditions: glucose replaced with galactose in the media
Experimental: FIG. 32G-L show exemplary viability results of NCHIH2030 cells grown in the presence of 10 mM glucose or 10 mM galactose in the media after 72 hours (Pyrithione-Cu is Pyrithione-CuCl2 (1:1); TMT-Cu is TMT-CuCl2 (1:1); 8HQ-Cu is 8-HQ-CuCl2 (1:1); Disulfiram-Cu is Disulfiram-CuCl2 (1:1); NSC319726-Cu is NSC319726-Cu Cl2 1(1:1); AntiA is Antimycin A).
(§1) To establish if this effect is mediated by the electron transfer chain (ETC), 143B rho0 cells (lacking mitochondrial DNA) and their parental controls (143B) were tested.

[7] = test system: lipoyl-DLAT and lipoyl-DLST; test: Western blot of lipoylated proteins; format: cell-based
Experimental: CRISPR KO FDX1 cell lines or CRISPR KO LIAS cell lines were created and were assessed for levels of lipoylated proteins lipoyl-DLAT and lipoyl-DLST by Western Blot (FIG. 8).
Lipoic acid is a strong binder of copper, making it plausible that elesclomol bound copper could directly affect the lipoylated proteins. Indeed, the addition of elesclomol at concentrations as low as 10 nM reduced the levels of lipoylated proteins without dramatically affecting the protein levels (FIG. 36 and FIG. 37).
The levels of lipoylation decrease following treatment of A549 cells with 1 μM elesclomol (+CuCl2) (FIG. 26).

[8] = test system: 143B rho0 cells; test: Viability of 143B and 143B Rho0 cells; format: cell-based; conditions: 72 hours
Experimental: as §1

[9] = test system: MON cells; test: Viability after treatment with drugs in the presence of metal salts; format: cell-based; conditions: for cell death promoted by Zinc: 10 μM ZnCl2
Experimental: Metal binding compounds can induce a toxic phenotype either by sequestration (chelation) of metals from essential factors or by shuttling (e.g., an ionophore) of metals to cellular compartments where they are toxic.
The viability of MON cells was measured following treatment with increasing doses of indicated drugs in the presence of 10 μM FeCl2, FeCl3, ZnCl2, NiCl, CuCl2, or CoCl2 (FIG. 13). The viability of NCIH2030 cells was measured following treatment with increasing doses of indicated drugs in the presence of 10 μM FeCl2, FeCl3, ZnCl2, NiCl, CuCl2, or CoCl2 (FIG. 14).

[10] = test system: ABC1 cells; test: Elesclomol sensitivity of single cell clones with AAVS1 or FDX1 deletion; format: cell-based; conditions: in the presence of 1 uM CuCl2
[11] = test system: tumors; test: Lipoic acid staining as biomarker of sensitivity
From the text: Lipoic acid was stained in FDX1 KO cells by an immunohistochemistry assay.

[12] = test system: multiple cell line models; test: Elesclomol-induced cell death depending on copper availability (supplementation, TTM chelation, serum); format: cell-based
From the text: The sensitivity of cells to elesclomol is dependent on copper availability. […] Copper is not supplemented in the media (RPMI) and therefore the availability of copper is restricted to the abundance of copper in serum, which can strongly vary. […] Thus, the efficacy of elesclomol is dependent on extracellular and intracellular copper availability.

[13] = Tsvetkov et al., Nat Chem Bio, 2019; cited from earlier work
[14] = test system: three cell lines; test: Pre-treatment with compounds that block known cell death pathways; format: cell-based
From the text: To further establish which cell death pathways might be mediating the elesclomol induced copper-dependent cell death, a chemical approach was undertaken using compounds that block critical niches of known cell death pathways. […] As controls, ferroptosis-inducing GPX4 inhibitor (ML162) and apoptosis-inducing proteasome inhibitor (bortezomib) were used. […] Ferroptosis or apoptosis-altering compounds (as shown in the ML162 and bortezomib controls) had no effect on elesclomol-copper-induced cell death. […] The slight changes observed are most likely due to the copper chelating properties of the molecule. […] Given the absolute dependency and regulation of this cell death pathway by copper, this process is referred to as ‘cuproptosis’ for simplicity.

[15] = test system: HCM18 cells; test: Viability of HCM18 control and Bak/Bax deleted cells; format: cell-based; conditions: HCM18 Bak/Bax knock out vs control
From the text: FIG. 32A-F show exemplary viability results of HCM18 control cells or […] deletion cells after treatment with indicate concentrations of different compounds (Pyrithione-Cu is Pyrithione-CuCl2 (1:1); TMT-Cu is TMT-CuCl2 (1:1); 8HQ-Cu is 8-HQ-CuCl2 (1:1); Disulfiram-Cu is Disulfiram-CuCl2 (1:1); NSC319726-Cu is NSC319726-Cu Cl2 1(1:1); AntiA is Antimycin A).
Both iron and copper can generate highly reactive hydroxyl radical (.OH) from O2.— and H2O2 in the cell via the Fenton reaction. In the case of iron, this can result in lipid radicals that induce ferroptosis, a non-apoptotic cell death. […] As such, to determine if elesclomol induced cell death is apoptotic, a genetic approach was undertaken using the HCM18 cells that have the crucial apoptosis effectors (Bak and Bax) knocked out (FIG. 29). […] However, the ability of elesclomol-copper to induce cell death was unaffected (FIG. 11). Other copper binding molecules were tested in these cell lines and in all cases the efficacy of these compounds was unaffected by the genetic perturbation of the apoptosis pathway (FIG. 32).

[16] = test system: A549 cell lines; test: Whole genome CRISPR/Cas9 deletion screens with copper bound ionophores; format: cell-based; conditions: positive selection
Experimental: These genes included FDX1, protein lipoylation enzymes (LIAS, LIPT1, and DLD) and subunits of the lipoylated protein complex pyruvate dehydrogenase (DLAT, PDHA1, and PDHB).
FIG. 54A-E show exemplary plots of the log fold change versus the calculated p-value of FDX1 (A), DLAT (B), DLD (C) and LIAS (D) genes from the two whole genome CRISPR/Cas9 deletion screens in A549 cell lines for two concentrations of elesclomol-Cu (40 nM and 100 nM). (E) The correlation scores of FDX1 mRNA expression with the viability of 724 cancer cell lines as previously determined (4) for the different concentrations of elesclomol.

[17] = test system: lipid peroxidation; test: Lipid peroxidation; format: cell-based
[18] = Tsvetkov et al., Nat Chem Bio, 2019

CN1C(c2ccccc2)=[SH][Cu+2]23[SH]=C(c4ccccc4)N(C)[N]2C(=O)CC(=O)[N]13 [elesclomol-Cu(II)]
biomarker selective cell killing after short exposure ([1]; 2 hour exposure at 200 nM followed by washout): sufficient to effect biomarker selective cell killing | sensitivity of biomarker-positive cells [1]: sensitive | effect of deletion of LIAS or FDX1 in OVISE cells [2]: resistance | substrate of FDX1 [3, 18]: neo-substrate of FDX1 | effect of deletion of FDX1 in A549 cells ([4]; A549): relative resistance | effect of deletion of FDX1 ([4]; multiple cell models): conferred resistance

CN(NC(=O)CC(=O)NN(C)C(=S)c1ccccc1)C(=S)c1ccccc1 [elesclomol, Elesclomol]
Phase II trial outcome ([5]; in combination with paclitaxel): may provide a cancer progression-free survival benefit | Phase III trial outcome ([5]; in vivo): failed | sensitivity of biomarker-positive cells [1]: more sensitive | effect of shift to mitochondrial metabolism on sensitivity [6]: increasingly more sensitive | lipoyl-DLAT and lipoyl-DLST protein levels ([7]; 1 μM over 6 hours): decreased over time | levels of lipoylation ([7]; A549 cells, 1 μM (+CuCl2)): decrease | concentration that reduced the levels of lipoylated proteins ([7]; without dramatically affecting the protein levels): ≤ 10 nM | sensitivity of 143B rho0 cells compared with parental 143B [8]: slightly more sensitive | FDX1 activity in vitro [3, 18]: inhibits FDX1 activity | binding to FDX1 [3]: direct target | binding to FDX1 ([3]; listed as Elesclomol): directly binds | selectivity of metal binding ([9]; among compounds of the cluster): most selective binding to copper | effect of decrease of FDX1 beyond certain threshold [10]: increases the cell resistance | sensitivity of tumors with increased levels of lipoic acid [11]: sensitive | effect of deletion of LIAS [4]: sufficient to promote resistance | sensitivity in media lacking serum ([12]; completely reversed by addition of copper): increased resistance | elesclomol-induced cell death upon addition of copper ([12]; copper 1 μM in media or 1:1 ratio with compound): strongly augment | elesclomol induced cell death upon chelation of copper with tetrathiomolybdate (TTM) ([12]; multiple cell line models): completely blocks | variability of efficacy with copper supplementation ([12]; subset of ovarian cancer cell lines): strongly reduces the variability | copper dependence of killing [13]: copper dependent | block of cell death by copper chelation ([14]; three cell lines tested, TTM): only copper chelation by TTM, was able to block

CC(=O)O[C@H]1C(=O)[C@@]2(C)[C@H]([C@H](OC(=O)c3ccccc3)[C@]3(O)C[C@H](OC(=O)[C@H](O)[C@@H](NC(=O)c4ccccc4)c4ccccc4)C(C)=C1C3(C)C)[C@]1(OC(C)=O)CO[C@@H]1C[C@@H]2O [paclitaxel]
efficacy in Bak/Bax deleted cells [15]: strongly inhibited

CN(C)C(=S)SC(=S)N(C)C [TMT, tetra methyl thiuram monosulfide]
effect of shift to mitochondrial metabolism on sensitivity [6]: rather mild | sensitivity of 143B rho0 cells compared with parental 143B [8]: equally sensitive

[O-][n+]1ccccc1[S-].[O-][n+]1ccccc1[S-].[Zn+2] [Pyrithione, Pyrithione Zinc]
effect of shift to mitochondrial metabolism on sensitivity [6]: rather mild | sensitivity of 143B rho0 cells compared with parental 143B [8]: equally sensitive | cell death promoted by Zinc ([9]; to a lower extent than copper): also able to promote the cell death

C/C(=N\NC(=S)N1CCC1)c1ccccn1 [NSC-319726]
sensitivity of 143B rho0 cells compared with parental 143B [8]: equally sensitive | cell death promoted by Zinc ([9]; to a lower extent than copper): also able to promote the cell death

CCN(CC)C(=S)SSC(=S)N(CC)CC [disulfiram, tetraethylthiuram disulfide]
sensitivity of 143B rho0 cells compared with parental 143B [8]: slightly more sensitive | cell death promoted by Zinc ([9]; to a lower extent than copper): also able to promote the cell death | sensitivity of tumors with increased levels of lipoic acid [11]: sensitive

CN([N-]C(=O)CC(=O)[N-]N(C)C(=[SH+])c1ccccc1)C(=[SH+])c1ccccc1.[Cu] [elesclomol-Cu(II)]
effect of deletion of FDX1, protein lipoylation and PDH genes [16]: promotes resistance | efficacy in Bak/Bax deleted cells [15]: unaffected | change in lipid peroxidation [17]: did not induce a profound change | block of cell death by pan-caspase inhibitors, Ferrostatin-1, Necrostatin-1, antioxidants ([14]; pre-treatment of cells): did not block

Oc1cccc2cccnc12 [8HQ, Oxyquinoline]
effect of shift to mitochondrial metabolism on sensitivity [6]: rather mild | sensitivity of 143B rho0 cells compared with parental 143B [8]: equally sensitive | cell death promoted by Iron ([9]; 10 μM FeCl2, FeCl3, to a lower extent than copper): also able to promote the cell death

CCN(CC)C(=S)[S-].CCN(CC)C(=S)[S-].[Cu+2] [Cu-DDC]
effect of deletion of FDX1, protein lipoylation and PDH genes [16]: promotes resistance
